“Also recorded” adds a separate entry of the source.
Key:
RAW 264.7 cells = assay: Cell viability of drug treated RAW 264.7 cells (CellTiter 96 AQueous One, MTS)
Procedure: Assessments of drug anti-TNF-α and nitric oxide generation in RAW 264.7 cells: RAW 264.7 cells were purchased from ATCC Manassas, VA, USA). The cells were grown in DMEM media (Invitrogen, DMEM, high glucose, GlutaMAX Supplement, pyruvate, #10569-010) supplemented with 10% FBS (Invitrogen, Fetal Bovine Serum, qualified, heat inactivated, #16140-071) with penicillin and streptomycin (Invitrogen, Penicillin-Streptomycin (10,000 U/mL), #15140-122) and were maintained at 37 C and 5% CO2. The cells were grown to 75%-85% confluence on 10 cm plates (corning-Fal-con, #353003) following the protocol described by ATTC. to assess for drug effects on LPS-induced markers of inflammation, namely TNF-α protein and nitrite ion levels (NO2, a stable end-product of nitric oxide metabolism) cells were seeded into 24 well (VWR, #10062-896) at a density of 200×10^3 cells per well. On each plate there was one blank well where no cells were added yet culture media in the well was treated similarly to wells with cells (n=1). The blank well media was used for background subtraction for various downstream assays. twenty-four hours after seeding the plate the seeding media was replaced with fresh media. Two hours after this the cells were exposed to a range of concentrations of drug test-compound(s) dissolved in 100% tissue culture grade dimethyl sjloxide (DMSO, SIGMA #D2650). Drug stocks were prepared in a 200 times more concentrated stock in DMSO. The final concentration of DMSO added to the cells was 0.5%. The effects of each concentration of drug were assessed in 4 wells per concentration in the 24 well plate (n=3 #-4). On each plate one set of wells were assigned as drug-vehicle control (i.e. DMSO), one test compound was assessed on one 24 well plate. […] One hour after the drugs were added the cells were challenged with lipopolysaccharide (LPS, SIGMA, serotype 055:B5) at a final concentration of 60 ng/ml. Twenty to twenty-four hours after the cells were challenged with LPS the culture media was collected and utilized for the measurement of markers of inflammation.
Cellular viability assessment of drug treated RAW 264.7 cells: RAW 264.7 cell viability was determined by use of the CellTiter 96 AQueous One Solution Cell Proliferation Assay (Promega, Madison, WI). Changes in cellular health status were determined by use of indirect measures related to the formation of a colored tetrazolium dye product that can be measured spectrophotometrically at 490 nm. An increase in absorbance at 490 nm is indicative of an increase in numbers of healthy cells; similarly a reduction in absorbance is indicative of a reduction of healthy cells. After the culture media was harvested for use in TNF-α and NO2— ion assays, the media was replaced with 0.5 mL of fresh media plus 100 μL of the cell viability reaction mixture. After a 20-30 min incubation at 37° C. with 5% CO2 the absorbance at 490 nm was obtained using an infinite M200 PRO plate reader (TECAN, USA).
Statistical analyses for RAW-derived assays: Data are expressed as a percentage change from the DMSO-vehicle control measurements. Measurements are expressed as mean±standard errors, where the n number represents the number of wells in a 24 well plate. Due to the presence of one blank control well on each plate, for some drug concentrations the n number is 3 # and not 4. Statistical comparisons were undertaken by use of a One-Way ANOVA with appropriate Bonferroni corrections for multiple comparisons, as required (GraphPad InStat Version 3.05). P values of <0.05 are considered to be of statistical significance.
RAW 264.7 cell culture: RAW 264.7 mouse cells were purchased from ATCC (Manassas, VA, USA) and grown in DMEM media supplemented with 10% FCS, penicillin 100 U/ml and streptomycin 100 μg/ml (ThermoFisher Scientific, Asheville, NC, USA). The cells were maintained at 37° C. and 5% CO2.

CCI-induced TBI mice [1] = assay: CCI mouse model of TBI: Iba1 microglia / GFAP astrocyte immunofluorescence (MotiQ); assay type: in vivo
Procedure: (§1) In vivo model of TBI: Mice were anesthetized with 2.5% tribromoethanol (Avertin: 250 mg/kg; Sigma, St. Louis, MO, USA) and placed in a stereotaxic frame (Kopf Instruments, Tujunga, CA, USA). A 4 mm craniotomy was performed using sterile procedures; the craniotomy point was selected midway between the lambda and bregma sutures and laterally midway between the central suture and the temporalis muscle. The skull fragment was then carefully removed without disruption of the underlying dura. Prior to injury induction, the tip of the impactor was angled and kept perpendicular to the exposed cortical surface. The mouse CCI instrument consisted of an electromagnetic impactor, Impact One (Leica Biosystems Inc., Buffalo Grove, IL, USA) that allows independent alteration of injury severity by controlling contact velocity and the level of cortical deformation. In these experiments, the contact velocity was set at 5.0 m/sec, the dwell time was set at 0.2 s and the deformation depth was set at 2 mm to produce a moderate TBI. The injury site was allowed to dry prior to suturing the wound. During surgery and recovery, the body temperature of the animals was maintained at 36-37° C. by using a heating pad. […] Mice were randomized following CCI to treatment with either of two doses of TFBP (16.25 mg/kg and 32.5 mg/kg, i.p.) or saline, and were dosed at 1 and 24 hr after the injury.
Tissue processing: Two weeks after injury, mice were deeply anesthetized with isoflurane and perfused transcardially with 30 ml phosphate buffered saline (PBS). After removal, the brain was post-fixed with 4% PFA overnight then transferred to a 30% sucrose solution in PBS. Coronal sections from the dorsal hippocampus and the posterior parietal cortex were cryosectioned at 25 μm thickness and stored in cryoprotectant solution for Giemsa staining and immunohistochemical analysis.
Immunofluorescence analysis: For GFAP and Iba1 quantification, brain samples were incubated overnight with either one of the following primary antibodies: anti-GFAP 1:2500 dilution (chicken polyclonal, Abcam, USA, cat #ab4674) or anti-Iba1 1:200 dilution (guinea pig polyclonal anti-Iba1, Synaptic System, USA, cat #234004). After PBS washing, sections were incubated for 1 hr at RT with a goat anti-chicken AlexaFluor® 488-conjugated secondary antibody IgY (H+L) 1:500 dilution (ThermoFisher, USA, cat #A-21432) for detection of GFAP, and with a Goat anti-Guinea Pig IgG (H+L) Highly Cross-Adsorbed Secondary Antibody, Alexa Fluor™ 555, ThermoFisher, USA, cat #A-21435) for detection of Iba1. Sections were washed in PBS and mounted with […]® Antifade Mounting Medium with DAPI (Vectorlabs, USA, cat #H-1200). Controls consisted of omission of the primary antibody. […] Multiple parameters were analyzed, including ramification index, spanned area, number of branches, junctions and endpoints.
(§2) In Vivo Model of TBI: TBI studies were conducted in 8-week-old male C57/BL6 mice (25-30 g; n=20), Jackson Laboratory, Bar Harbor, Maine USA. Mice were randomly assigned to four groups prior surgery, CMC+Sham, CMC+TBI, compound 30 (Low dose (LD), 14.78 mg/kg, prepared in 1% CMC in PBS)+TBI, compound 30 (High dose (HD), 29.57 mg/kg)+TBI, and evaluated the effects of compound 30 on TBI. Mice were assessed for gait function and motor coordination, balance function. Animals were subsequently evaluated for cellular changes using histological and immunohistochemistry staining. […]

CCI-induced TBI mice [2] = assay: CCI mouse model of TBI: brain lesion and lateral ventricle size (Giemsa); assay type: in vivo
Procedure: as §1
Tissue processing: Two weeks after injury, mice were deeply anesthetized with isoflurane and perfused transcardially with 30 ml phosphate buffered saline (PBS). After removal, the brain was post-fixed with 4% PFA overnight then transferred to a 30% sucrose solution in PBS. […]
Quantification of brain lesion and lateral ventricle size in TBI animals: One set of brain sections 2-weeks post-CCI were mounted on slides. […] Brain image regions were quantified using ImageJ 1.52q software (National Institutes of Health, Bethesda, MD). […] There were 9 brain sections from each mouse counted by blinded observers, with regions starting from bregma at 0.86 to −1.46 mm.
as §2

IL-5 = assay: LPS model of inflammation in rats: IL-5 in plasma and cortex; assay type: in vivo, rat; settings: both doses; LPS-challenged rats
[3] = target: cereblon (CRBN/DDB1-CUL4A-Rbx1 complex) / BRD3 (Homo sapiens (Human), UniProt Q96SW2); assay: Cereblon/BRD3 binding assay (AlphaScreen / FRET); settings: for IC50: Example 5, FIG. 20A; for cereblon binding (in words): cereblon/BRD3 binding FRET assay
Procedure: After 30 min of incubation with shaking at room temperature, AlphaLISA anti-FLAG Acceptor and Alpha Glutathione Donor beads (PerkinElmer) were sequentially added and then incubated for 1 hr at room temperature for each of the added chemicals. Alpha counts were thereafter read on a Synergy Neo2 (BioTek) for the analysis. Relative activity or inhibition was calculated as the highest value, which was set to 100%, and the lowest value was set to 0% after subtraction of the “blank value” from all readings.
After 30 min of incubation with shaking at room temperature, AlphaLISA anti-FLAG Acceptor and Alpha Glutathione Donor beads (PerkinElmer) were sequentially added and then incubated for 1 h at room temperature for each of the added chemicals. Alpha counts were thereafter read on a Synergy Neo2 (BioTek) for the analysis. The relative activity of the alpha signal was calculated after subtraction of the “blank value” from all readings, and the value of the vehicle group was then set as 100%.

cereblon (CRBN/DDB1-CUL4A-Rbx1 complex) / BRD3, sequence (Q96SW2 whole entry): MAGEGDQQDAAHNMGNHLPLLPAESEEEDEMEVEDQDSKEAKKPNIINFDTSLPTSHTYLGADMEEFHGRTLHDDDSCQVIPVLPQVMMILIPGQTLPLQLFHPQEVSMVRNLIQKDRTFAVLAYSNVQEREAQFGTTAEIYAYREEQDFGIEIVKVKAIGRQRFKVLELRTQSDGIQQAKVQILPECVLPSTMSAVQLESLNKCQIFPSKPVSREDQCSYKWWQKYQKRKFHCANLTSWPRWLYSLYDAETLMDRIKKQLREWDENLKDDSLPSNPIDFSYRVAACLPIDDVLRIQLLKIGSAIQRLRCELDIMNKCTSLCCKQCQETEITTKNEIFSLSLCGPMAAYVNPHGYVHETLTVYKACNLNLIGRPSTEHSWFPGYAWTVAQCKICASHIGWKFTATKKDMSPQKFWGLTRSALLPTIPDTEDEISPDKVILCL
cereblon (CRBN/DDB1-CUL4A-Rbx1 complex) / BRD3, sequence (Q16531 whole entry partner): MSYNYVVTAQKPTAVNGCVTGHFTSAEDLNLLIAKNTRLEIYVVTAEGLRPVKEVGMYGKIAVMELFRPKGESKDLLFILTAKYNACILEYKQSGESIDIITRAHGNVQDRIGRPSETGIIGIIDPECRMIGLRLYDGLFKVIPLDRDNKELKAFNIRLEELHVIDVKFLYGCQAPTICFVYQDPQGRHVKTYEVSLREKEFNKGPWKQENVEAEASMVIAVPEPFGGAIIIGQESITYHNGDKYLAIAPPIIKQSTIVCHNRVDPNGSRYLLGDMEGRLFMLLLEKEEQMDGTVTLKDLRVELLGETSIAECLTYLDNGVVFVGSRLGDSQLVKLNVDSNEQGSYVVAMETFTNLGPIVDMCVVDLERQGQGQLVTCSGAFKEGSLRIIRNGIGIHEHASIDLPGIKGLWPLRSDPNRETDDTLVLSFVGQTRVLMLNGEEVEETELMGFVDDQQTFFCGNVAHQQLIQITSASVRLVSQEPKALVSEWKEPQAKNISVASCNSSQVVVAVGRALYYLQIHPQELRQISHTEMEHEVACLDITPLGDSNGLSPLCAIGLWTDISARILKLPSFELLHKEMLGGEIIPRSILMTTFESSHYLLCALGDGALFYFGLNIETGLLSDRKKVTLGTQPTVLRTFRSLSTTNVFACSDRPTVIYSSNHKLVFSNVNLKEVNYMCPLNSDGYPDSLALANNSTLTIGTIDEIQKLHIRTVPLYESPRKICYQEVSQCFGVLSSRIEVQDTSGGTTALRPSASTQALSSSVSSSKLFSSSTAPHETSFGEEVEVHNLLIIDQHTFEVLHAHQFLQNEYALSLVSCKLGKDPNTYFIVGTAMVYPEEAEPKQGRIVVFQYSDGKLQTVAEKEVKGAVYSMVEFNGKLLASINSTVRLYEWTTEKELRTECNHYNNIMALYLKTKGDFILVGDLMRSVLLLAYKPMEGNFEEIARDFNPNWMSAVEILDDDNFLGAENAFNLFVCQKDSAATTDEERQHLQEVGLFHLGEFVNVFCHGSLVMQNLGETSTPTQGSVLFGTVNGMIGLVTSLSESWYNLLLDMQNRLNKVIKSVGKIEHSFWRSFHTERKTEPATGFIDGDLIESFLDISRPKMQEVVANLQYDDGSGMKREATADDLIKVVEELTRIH
cereblon (CRBN/DDB1-CUL4A-Rbx1 complex) / BRD3, sequence (Q13619 whole entry partner): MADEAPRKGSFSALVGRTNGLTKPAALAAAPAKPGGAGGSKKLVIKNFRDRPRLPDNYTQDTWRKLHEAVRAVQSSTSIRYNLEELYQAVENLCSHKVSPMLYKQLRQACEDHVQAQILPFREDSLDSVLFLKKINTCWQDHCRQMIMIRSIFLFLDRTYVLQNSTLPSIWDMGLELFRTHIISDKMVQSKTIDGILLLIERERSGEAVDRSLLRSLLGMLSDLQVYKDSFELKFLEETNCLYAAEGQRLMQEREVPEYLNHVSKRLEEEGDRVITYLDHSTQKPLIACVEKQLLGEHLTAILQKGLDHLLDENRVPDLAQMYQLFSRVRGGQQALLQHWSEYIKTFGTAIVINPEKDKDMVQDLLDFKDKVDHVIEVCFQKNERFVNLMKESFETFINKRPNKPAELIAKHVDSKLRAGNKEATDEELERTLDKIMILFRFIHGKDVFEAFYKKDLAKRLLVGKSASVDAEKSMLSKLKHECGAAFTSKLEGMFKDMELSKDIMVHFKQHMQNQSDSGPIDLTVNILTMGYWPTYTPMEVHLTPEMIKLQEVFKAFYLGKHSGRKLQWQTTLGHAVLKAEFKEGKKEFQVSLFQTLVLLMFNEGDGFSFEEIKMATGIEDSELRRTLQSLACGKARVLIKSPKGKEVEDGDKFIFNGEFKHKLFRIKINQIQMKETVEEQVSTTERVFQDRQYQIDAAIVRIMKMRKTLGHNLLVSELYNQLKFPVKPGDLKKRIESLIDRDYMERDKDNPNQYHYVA
cereblon (CRBN/DDB1-CUL4A-Rbx1 complex) / BRD3, sequence (P62877 whole entry partner): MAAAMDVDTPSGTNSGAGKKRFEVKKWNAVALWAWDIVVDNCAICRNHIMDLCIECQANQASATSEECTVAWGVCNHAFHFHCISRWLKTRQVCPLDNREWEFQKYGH

SMILES | cell viability (RAW 264.7 cells; 1 μM, RAW 264.7 cells) [%] | Cell Viability % Δ (RAW 264.7 cells; 1 μM, RAW 264.7 cells, percentage of vehicle control value, mean ± S.E.M., n = 3) [%] | cell viability (in words) (RAW 264.7 cells; 100-1000 nM, vs LPS+Vehicle) | microglial morphology (ramification index, spanned area, end points, branches, junctions), ipsilateral side (CCI-induced TBI mice [1]; lower and higher dose, 2 weeks after CCI) | lateral ventricle size (CCI-induced TBI mice [2]; both doses, 2 weeks after TBI) | loss of cortical tissue (lesion volume) (CCI-induced TBI mice [2]; higher dose 32.5 mg/kg, 2 weeks after TBI) | loss of cortical tissue (lesion volume) (CCI-induced TBI mice [2]; lower dose 16.25 mg/kg, 2 weeks after TBI) | IL-5 expression in plasma (in words) (IL-5) | IC50 [3] [µM] | cereblon binding (in words) [3] | cellular viability (RAW 264.7 cells; 0.6-60 μM, LPS 60 ng/mL, 24 h) [%] | number of astrocytes (GFAP) in cortex (CCI-induced TBI mice [1]; 14.78, 29.57 mg/kg, 2 weeks after TBI) | number of branches, junctions, endpoints of microglial processes (CCI-induced TBI mice [1]; 14.78, 29.57 mg/kg, ipsilateral cortex) | number of microglia induced by TBI (CCI-induced TBI mice [1]; cortex) | microglial ramification index and spanned area (CCI-induced TBI mice [1]; ipsilateral cortex, 2 weeks after TBI) | lesion size (CCI-induced TBI mice [2]; low dose 14.78 mg/kg, 2 weeks post-TBI, vs CMC)
CC1(C)[C@@H]2CC[C@@]1(C)[C@@H](N1C(=O)c3c(F)c(F)c(F)c(F)c3C1=O)C2 [Compound 14, 4,5,6,7-Tetrafluoro-2-((1R,2S,4R)-1,7,7-trimethylbicyclo[2.2.1]heptan-2-yl) isoindoline-1,3-dione] | ≥ 94 | 95 ± 4 | not significantly affected; also recorded: without impact on cell viability | substantially counteracted these CCI-induced microglial phenotypic measures | did not reach statistical significance | failed to reach statistical significance | reduce loss of cortical tissue | reduced IL-5 expression in plasma | 53.4 | did not bind cereblon |  |  |  |  |  | 
O=C1c2c(F)c(F)c(F)c(F)c2C(=O)N1C1CC2CCC1C2 (stereo not drawn) [Compound 16, 2-Endo-(bicyclo[2.2.1]heptan-2-yl)-4,5,6,7-tetrafluoroisoindoline-1,3-dione] |  |  |  |  |  |  |  | reduced IL-5 expression in plasma | > 100 | did not bind cereblon |  |  |  |  |  | 
Nc1ccc(F)c2c1C(=S)N(C1CCC(=S)NC1=O)C2=O (stereo not shown) [Compound 30, 4-amino-7-fluoro-2-(2-oxo-6-thioxopiperidin-3-yl)-3-thioxoisoindolin-1-one] |  |  |  |  |  |  |  |  |  |  | > 90 | significantly decreased the number of astrocytes | significantly rescue the morphological changes of microglia | subtle reduction, but not significant | significantly ameliorated the morphological alteration of microglia | significant reduction of the lesion size

Source: patent publication US20260055061A1, “HALOPHTHALIMIDE COMPOUNDS AND METHODS OF USE AGAINST TBI, INFLAMMATORY DISORDER, AUTOIMMUNE DISORDER, NEURODEGENERATIVE DISEASE OR VIRAL INFECTION” (The United States of America, as represented by the …, priority 2022, published 2026)
